One assay concerns the target T1, human cathepsin F (Homo sapiens, UniProt Q9UBX1).
T1 sequence (Q9UBX1 271-484): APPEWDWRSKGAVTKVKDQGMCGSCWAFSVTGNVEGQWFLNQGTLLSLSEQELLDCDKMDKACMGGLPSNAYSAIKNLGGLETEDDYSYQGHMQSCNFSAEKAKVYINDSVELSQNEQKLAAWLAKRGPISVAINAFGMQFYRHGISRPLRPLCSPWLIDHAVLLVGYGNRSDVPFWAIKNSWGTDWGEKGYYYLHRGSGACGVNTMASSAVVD
In words: Cathepsin F assay (hCat F). It is filed as biochemical. Particulars: Z-Phe-Arg-AMC substrate, pH 5.5, 15 min preincubation; read-out: hCat F (IP (nM)). In short, it runs like this: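 Enzyme (10 nM) was preincubated 15 min at room temperature with compounds (1/3 DMSO dilution series, 500–0.025 μM) in 50 mM MES pH 5.5, 2.5 mM EDTA, 2.5 mM DTT, 10% DMSO. Z-Phe-Arg-AMC (8 μM) was added and AMC fluorescence (Ex 360/Em 460 nm) followed for 20 min. % inhibition was fitted to dose-response curves.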

For a further assay, the target named is human cathepsin K (UniProt P43236). In words: Cathepsin K Assay (hrbCat K). It is filed as biochemical. As to conditions: Z-Leu-Arg-AMC substrate, pH 5.5, 15 min preincubation; read-out: hrbCat K (IP (nM)). In short, it runs like this:
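Human cathepsin K (0.4 nM) was preincubated 15 min at room temperature with compound in 50 mM MES pH 5.5, 2.5 mM EDTA, 2.5 mM DTT and 10% DMSO. Inhibition was fitted to a dose-response model.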

Consider `N#CC1(NC(=O)[C@@H]2CCCC[C@H]2c2nc(-c3ccc(F)cc3)sc2-c2ccc(C(=O)N3CCOCC3)cc2)CC1` [Example 32, (1R,2R)-N-(1-cyanocyclopropyl)-2-(2-(4-fluorophenyl)-5-(4-(morpholine-4-carbonyl)phenyl)thi-azol-4-yl)cyclohexane-carboxamide], for which the values for the IC50 on human cathepsin F and on human cathepsin K were 422 nM and 65.1 nM, respectively.

`CS(=O)(=O)N1CCN(C(=O)c2ccc(-c3sc(-c4ccc(F)cc4)nc3[C@@H]3CCCC[C@H]3C(=O)NC3(C#N)CC3)cc2)CC1` [Example 33, (1R,2R)-N-(1-cyanocyclopropyl)-2-(2-(4-fluorophenyl)-5-(4-(4-(methylsulfonyl)piperazine-1-carbonyl)phenyl)thi-azol-4-yl)cyclohexane-carboxamide]: the IC50 was 410 nM on human cathepsin F and 47 nM at human cathepsin K.

With `N#CC1(NC(=O)[C@@H]2CCCC[C@H]2c2nc(-c3ccc(F)cc3)sc2-c2ccc(C(=O)N3CCC(O)CC3)cc2)CC1` [Example 34, (1R,2R)-N-(1-cyanocyclopropyl)-2-(2-(4-fluorophenyl)-5-(4-(4-hydroxypiperidine-1-carbonyl)phenyl)thi-azol-4-yl)cyclohexane-carboxamide], the figures for the IC50 on human cathepsin F and at human cathepsin K were 868 nM and 101 nM, respectively.

As to `N#CC1(NC(=O)[C@@H]2CCCC[C@H]2c2nc(-c3ccc(F)cc3)sc2-c2ccc(C(=O)N3CCNC(=O)C3)cc2)CC1` [Example 35, (1R,2R)-N-(1-cyanocyclopropyl)-2-(2-(4-fluorophenyl)-5-(4-(3-oxopiperazine-1-carbonyl)phenyl)thi-azol-4-yl)cyclohexane-carboxamide], the IC50 at human cathepsin F is 667 nM; at human cathepsin K it was 64.5 nM.

For `N#CC1(NC(=O)[C@@H]2CCCC[C@H]2c2nc(-c3cccnc3)sc2-c2ccc(N3CCS(=O)(=O)CC3)cc2)CC1` [Example 37, (1R,2R)-N-(1-cyanocyclopropyl)-2-(5-(4-(1,1-dioxidothiomorpho-lino)phenyl)-2-(pyridin-3-yl)thiazol-4-yl)cyclohexane-carboxamide], the IC50 on human cathepsin F is 2620 nM; at human cathepsin K it was 0.5 nM.

As to `N#CC1(NC(=O)[C@@H]2CCCC[C@H]2c2nc(-c3ccc(C(F)(F)F)nc3)sc2-c2ccc(N3CCS(=O)(=O)CC3)cc2)CC1` [Example 38, (1R,2R)-N-(1-cyanocyclopropyl)-2-(5-(4-(1,1-dioxidothiomorpho-lino)phenyl)-2-(6-(trifluoromethyl)pyridin-3-yl)thiazol-4-yl)cyclohexane-carboxamide], the IC50 amounted to 2060 nM at human cathepsin F and 1.8 nM at human cathepsin K.

In the case of `N#CC1(NC(=O)[C@@H]2CCCC[C@H]2c2nc(-c3ccon3)sc2-c2ccc(N3CCS(=O)(=O)CC3)cc2)CC1` [Example 39, (1R,2R)-N-(1-cyanocyclopropyl)-2-(5-(4-(1,1-dioxidothiomorpho-lino)phenyl)-2-(isoxazol-3-yl)thiazol-4-yl)cyclohexane-carboxamide], the IC50 at human cathepsin F was determined as 1360 nM; at human cathepsin K, 1 nM.

Consider `N#CC1(NC(=O)[C@@H]2CCCC[C@H]2c2nc(N3CCOCC3)sc2-c2ccc(N3CCS(=O)(=O)CC3)cc2)CC1` [Example 40, (1R,2R)-N-(1-cyanocyclopropyl)-2-(5-(4-(1,1-dioxidothiomorpho-lino)phenyl)-2-morpholinothiazol-4-yl)cyclohexane-carboxamide], for which the IC50 at human cathepsin F is at least 10000 nM; on human cathepsin K it was 1.8 nM.

Consider `N#CC1(NC(=O)[C@@H]2CCCC[C@H]2c2nc(-c3ccc(Cl)cn3)sc2-c2ccc(N3CCS(=O)(=O)CC3)cc2)CC1` [Example 41, (1R,2R)-2-(2-(5-chloropyridin-2-yl)-5-(4-(1,1-dioxidothiomorpho-lino)phenyl)thiazol-4-yl)-N-(1-cyanocyclopropyl) cyclohexanecarbox-amide], for which the IC50 at human cathepsin F worked out at 945 nM; on human cathepsin K, 1.2 nM.

Consider `CC(C)(O)c1ccc(-c2nc([C@@H]3CCCC[C@H]3C(=O)NC3(C#N)CC3)c(-c3ccc(N4CCS(=O)(=O)CC4)cc3)s2)cc1` [Example 43, (1R,2R)-N-(1-cyanocyclopropyl)-2-(5-(4-(1,1-dioxidothiomorpho-lino)phenyl)-2-(4-(2-hydroxypropan-2-yl)phenyl)thiazol-4-yl)cyclohexane-carboxamide], for which the IC50 was found to be 1110 nM on human cathepsin F and 1.2 nM on human cathepsin K.

For the compound `N#CC1(NC(=O)[C@@H]2CCCC[C@H]2c2nc(-c3cncc(F)c3)sc2-c2ccc(N3CCS(=O)(=O)CC3)cc2)CC1` [Example 44, (1R,2R)-N-(1-cyanocyclopropyl)-2-(5-(4-(1,1-dioxidothiomorpho-lino)phenyl)-2-(5-fluoropyridin-3-yl)thiazol-4-yl)cyclohexane-carboxamide], the IC50 on human cathepsin F was 790 nM; at human cathepsin K, 0.7 nM.

Consider `N#CC1(NC(=O)[C@@H]2C[C@H](F)CC[C@H]2c2nc(-c3ccc(F)cc3)sc2-c2ccc(N3CCS(=O)(=O)CC3)cc2)CC1` [Example 45, (1R,2R,5R)-N-(1-cyanocyclopropyl)-2-(5-(4-(1,1-dioxidothiomorpho-lino)phenyl)-2-(4-fluorophenyl)thiazol-4-yl)-5-fluorocyclohexane-carboxamide], for which the IC50 was determined as 197 nM at human cathepsin F and 1.5 nM at human cathepsin K.

As to `N#CC1(NC(=O)[C@@H]2C[C@@H](F)CC[C@H]2c2nc(-c3cccnc3)sc2-c2ccc(N3CCS(=O)(=O)CC3)cc2)CC1` [Example 46, (1R,2R,5S)-N-(1-cyanocyclopropyl)-2-(5-(4-(1,1-dioxidothiomorpho-lino)phenyl)-2-(pyridin-3-yl)thiazol-4-yl)-5-fluorocyclohexane-carboxamide], the values for the IC50 at human cathepsin F and on human cathepsin K were 1980 nM and 1.1 nM, respectively.

Consider `N#CC1(NC(=O)[C@@H]2CCCC[C@H]2c2nc(-c3ccc(F)cn3)sc2-c2ccc(N3CCS(=O)(=O)CC3)cc2)CC1` [Example 47, (1R,2R)-N-(1-cyanocyclopropyl)-2-(5-(4-(1,1-dioxidothiomorpho-lino)phenyl)-2-(5-fluoropyridin-2-yl)thiazol-4-yl)cyclohexane-carboxamide], for which the IC50 on human cathepsin F was 1520 nM; at human cathepsin K, 1.3 nM.

`N#CC1(NC(=O)[C@@H]2CCCC[C@H]2c2nc(-c3cncc(Cl)c3)sc2-c2ccc(N3CCS(=O)(=O)CC3)cc2)CC1` [Example 48, (1R,2R)-2-(2-(5-chloropyridin-3-yl)-5-(4-(1,1-dioxidothiomorpho-lino)phenyl)thiazol-4-yl)-N-(1-cyanocyclopropyl) cyclohexanecarbox-amide]: the results for the IC50 at human cathepsin F and at human cathepsin K were 650 nM and 0.8 nM, respectively.

As for `N#CC1(NC(=O)[C@@H]2CC(F)(F)CC[C@H]2c2nc(-c3cccnc3)sc2-c2ccc(N3CCS(=O)(=O)CC3)cc2)CC1` [Example 49, (1R,2R)-N-(1-cyanocyclopropyl)-2-(5-(4-(1,1-dioxidothiomorpho-lino)phenyl)-2-(pyridin-3-yl)thiazol-4-yl)-5,5-difluorocyclohexane-carboxamide], the IC50 came out at 49 nM at human cathepsin F and 0.5 nM at human cathepsin K.

For the compound `Cn1cccc(-c2nc([C@@H]3CCCC[C@H]3C(=O)NC3(C#N)CC3)c(-c3ccc(N4CCS(=O)(=O)CC4)cc3)s2)c1=O` [Example 50, (1R,2R)-N-(1-cyanocyclopropyl)-2-(5-(4-(1,1-dioxidothiomorpho-lino)phenyl)-2-(1-methyl-2-oxo-1,2-dihydropyridin-3-yl)thiazol-4-yl)cyclohexane-carboxamide], the IC50 worked out at 879 nM on human cathepsin F and 1.9 nM at human cathepsin K.

Take `COc1ccc(-c2nc([C@@H]3CCCC[C@H]3C(=O)NC3(C#N)CC3)c(-c3ccc(N4CCS(=O)(=O)CC4)cc3)s2)cc1` [Example 51, (1R,2R)-N-(1-cyanocyclopropyl)-2-(5-(4-(1,1-dioxidothiomorpho-lino)phenyl)-2-(4-methoxyphenyl)thi-azol-4-yl)cyclohexane-carboxamide]: the IC50 at human cathepsin F amounted to 1110 nM; on human cathepsin K, 1.8 nM.

Take `Cn1cc(-c2nc([C@@H]3CCCC[C@H]3C(=O)NC3(C#N)CC3)c(-c3ccc(N4CCS(=O)(=O)CC4)cc3)s2)ccc1=O` [Example 53, (1R,2R)-N-(1-cyanocyclopropyl)-2-(5-(4-(1,1-dioxidothiomorpho-lino)phenyl)-2-(1-methyl-6-oxo-1,6-dihydropyridin-3-yl)thiazol-4-yl)cyclohexane-carboxamide]: the IC50 was found to be 2770 nM on human cathepsin F and 3.8 nM at human cathepsin K.

On to `COc1ccccc1-c1nc([C@@H]2CCCC[C@H]2C(=O)NC2(C#N)CC2)c(-c2ccc(N3CCS(=O)(=O)CC3)cc2)s1` [Example 54, (1R,2R)-N-(1-cyanocyclopropyl)-2-(5-(4-(1,1-dioxidothiomorpho-lino)phenyl)-2-(2-methoxyphenyl)thi-azol-4-yl)cyclohexane-carboxamide], for which the values for the IC50 on human cathepsin F and at human cathepsin K were 1000 nM and 2.1 nM, respectively.

Turning to `N#CC1(NC(=O)[C@@H]2CCCC[C@H]2c2nc(-c3ccccc3F)sc2-c2ccc(N3CCS(=O)(=O)CC3)cc2)CC1` [Example 55, (1R,2R)-N-(1-cyanocyclopropyl)-2-(5-(4-(1,1-dioxidothiomorpho-lino)phenyl)-2-(2-fluorophenyl)thiazol-4-yl)cyclohexane-carboxamide], the results for the IC50 on human cathepsin F and at human cathepsin K were 1120 nM and 2.5 nM, respectively.

Source of the values: patent publication US9573913B2, “Cathepsin cysteine protease inhibitors” (Merck Sharp & Dohme Corp., priority 2013, dated 2017).
